Data reported in US5834521A, “Substituted dibenz (A F)azulenes and methods of preparation” (Ortho Pharmaceutical Corporation, priority 1996, dated 1998).

Assays:
[1] = system: endometrial proliferation; experiment: Assay to Determine Effect of Compound on Uterine Proliferation (Clauberg Test); format: in vivo, immature female white rabbits; conditions: 40 mg/kg subcutaneously; scale 0 (no response)-4 (maximum response); estradiol-primed immature rabbits, daily for five days
Procedure: Assay to Determine Effect of Compound on Uterine Proliferation
The procedure used was essentially that of M. K. McPhail, J. Physiology, 83, 145 (1934). Groups of immature female white rabbits (750-950 g) were primed with a daily subcutaneous injection, for 6 days, with 5 micrograms of 17β-estradiol in 0.2 ml of sesame oil. Starting on the 7th day, they received the test compound daily for five days in the appropriate vehicle. The rabbits were sacrificed approximately 24 hours after the last administration, and the uteri were excised, cleaned and weighed. Portions of both uterine horns were fixed in 10% neutral formalin, sectioned at […] and stained with hematoxylin and eosin. Progestational activity was assessed as in the McGinty Test. The evaluation for endometrial proliferation was made according to a McPhail Index. Each slide was graded for each rabbit on a 0 (no response)-4 (maximum response) scale.

Progestin Receptor = target: T1, Progestin Receptor (Oryctolagus cuniculus, UniProt P06186); experiment: Progestin Receptor Binding (competitive binding, 3H-promegestone, rabbit uterus receptor preparation); parameters: species or system New Zealand rabbits; conditions: 3H-promegestone displacement, 4° C., 18 h
T1 construct: The high speed supernatant fraction was used as the receptor preparation; from tissue; host or cells: uterus of New Zealand rabbits, 200,000×g supernatant (cytosol)
T1 sequence (P06186 1-930): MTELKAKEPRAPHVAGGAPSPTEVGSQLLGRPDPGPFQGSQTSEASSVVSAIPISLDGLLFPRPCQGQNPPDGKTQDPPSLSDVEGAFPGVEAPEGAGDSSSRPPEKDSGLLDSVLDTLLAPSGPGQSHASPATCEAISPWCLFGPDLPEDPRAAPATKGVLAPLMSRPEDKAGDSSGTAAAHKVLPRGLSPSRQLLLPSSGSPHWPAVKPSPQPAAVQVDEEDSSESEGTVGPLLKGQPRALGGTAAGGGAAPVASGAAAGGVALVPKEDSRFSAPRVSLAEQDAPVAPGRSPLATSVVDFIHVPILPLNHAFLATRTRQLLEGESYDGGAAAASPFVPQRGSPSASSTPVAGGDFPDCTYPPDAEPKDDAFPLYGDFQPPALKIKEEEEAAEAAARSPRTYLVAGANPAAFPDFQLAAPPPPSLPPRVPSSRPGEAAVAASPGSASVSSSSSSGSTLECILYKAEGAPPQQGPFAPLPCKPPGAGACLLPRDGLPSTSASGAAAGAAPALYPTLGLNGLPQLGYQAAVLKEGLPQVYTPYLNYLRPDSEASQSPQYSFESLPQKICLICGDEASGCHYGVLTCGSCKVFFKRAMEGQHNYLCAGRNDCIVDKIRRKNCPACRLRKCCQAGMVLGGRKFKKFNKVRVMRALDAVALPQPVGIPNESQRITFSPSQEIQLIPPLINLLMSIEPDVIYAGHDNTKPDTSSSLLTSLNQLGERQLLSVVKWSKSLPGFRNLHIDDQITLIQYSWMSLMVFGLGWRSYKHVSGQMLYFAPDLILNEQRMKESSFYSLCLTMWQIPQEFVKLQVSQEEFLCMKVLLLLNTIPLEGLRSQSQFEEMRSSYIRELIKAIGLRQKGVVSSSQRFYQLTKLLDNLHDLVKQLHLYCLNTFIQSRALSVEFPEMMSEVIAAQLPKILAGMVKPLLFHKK
Procedure: Progestin Receptor Binding
The procedure used was essentially that of J. L. McGuire, C.
Uteri from New Zealand rabbits (1.5 to 2.5 kg) were placed in a cold buffer A (0.01 mol Tris-HCl, pH 8.0, 0.001 mol EDTA, 0.25 mol sucrose). The uteri were minced, washed and homogenized in cold buffer A. The homogenate (2 g wet tissue/mL buffer) was centrifuged at 200,000×g for 1 h at 4° C. The high speed supernatant fraction was used as the receptor preparation.
A competitive binding assay was performed by mixing 3H-promegestone with the receptor preparation and adding a known amount of unlabeled compound. This mixture was incubated at 4° C. for 18 h. The compounds bound to the receptor were separated from those which were free in solution using dextran coated charcoal and the amount of isotope bound to the receptor was determined by scintillation counting. The extent of the compound's interaction with the receptor is measured as the percent reduction in the total isotope bound caused by the unlabeled test compound as compared to the control levels. The receptor screen consists of measuring the reduction in the total isotope bound caused by the unlabeled test compound at […] final concentrations.

[2] = system: T47D human breast carcinoma cells; experiment: Assay to Demonstrate Ability to Increase Breast Cell Proliferation ([3H]-thymidine incorporation); format: cell-based; conditions: at the concentration of the same table line, control level set at 100%
Procedure: This assay is used to measure the sex steroid effects of compounds. The activity of compounds in this assay is an indication of their potential use as replacements for naturally occuring hormones in individuals with sex hormone deficiencies.
T47D human breast carcinoma cells are grown in 96-well plates in phenol-red free nutrient media at 37° C. for 48 hours. Conditioned media is removed and replaced with fresh media containing test compounds dissolved in DMSO (0.1% final concentration) and the cells are incubated for an additional 18-20 hours at 37° C. [^3 H]-thymidine is added to each well and allowed to incorporate into DNA for 4 hours. Unlabeled thymidine is then added to terminate the reaction, and the cultures are then washed, trypsinized and harvested. The amount of [^3 H]-thymidineincorporated into DNA is determined by liquid scintillation. Data for each well are expressed as a percent above control level, which is set at 100%. The concentration at which maximal deviation from control is found and the magnitude of that percent deviation is reported. Table T lists the data for some of the compounds of this invention.

Structure (SMILES): CCC[C@]12Cc3ccccc3C1=C[C@@H](C)c1ccc(OC)cc1C2 (relative stereo) [Compound 38]
- McPhail Index [1]: 4
- IC50 (Progestin Receptor): 25 nM
- % control (magnitude of maximal deviation from control) [2]: 189%

Structure (SMILES): CC(=O)Oc1cccc2c1CC=C1c3ccc(F)cc3CC1(C)C2 (centres unmarked) [Compound 113]
- IC50 (Progestin Receptor): 6 nM
- % control (magnitude of maximal deviation from control) [2]: 470%

Structure (SMILES): CC1CC2c3ccccc3CC2(C)Cc2cc(F)ccc21 (centres unmarked) [Compound 88, 6,11a-Dimethyl-9-fluoro-4b,5,6,11,11a,12-hexahydrodibenz[a,f]azulene]
- IC50 (Progestin Receptor): 34 nM
- % control (magnitude of maximal deviation from control) [2]: 187%

Structure (SMILES): CCC12Cc3cc(OC)ccc3CC=C1c1ccccc1C2 (centres unmarked) [Compound 43]
- IC50 (Progestin Receptor): 57 nM
- % control (magnitude of maximal deviation from control) [2]: 151%

Structure (SMILES): CCC12Cc3ccccc3C(C)CC1c1ccccc1C2 (centres unmarked) [Compound 53]
- IC50 (Progestin Receptor): 57 nM
- % control (magnitude of maximal deviation from control) [2]: 50%

Structure (SMILES): COc1ccc2c(c1)CC1(C)Cc3cccc(OC(C)=O)c3CC=C21 (centres unmarked) [Compound 117]
- IC50 (Progestin Receptor): 93 nM
- % control (magnitude of maximal deviation from control) [2]: 160%

Structure (SMILES): CCCC12Cc3cc(OC)ccc3CC=C1c1ccccc1C2 (centres unmarked) [Compound 27]
- IC50 (Progestin Receptor): 27 nM
- % control (magnitude of maximal deviation from control) [2]: 224%

Structure (SMILES): CC1CC2c3ccc(F)cc3CC2(C)Cc2cc(Oc3nnnn3-c3ccccc3)ccc21 (centres unmarked) [Compound 63, 6,11a-Dimethyl-2-fluoro-9-(1-phenyl-5-tetrazolyl)-oxy-4b,5,6,11,11a,12-hexahydrodibenz[a,f]azulene]
- IC50 (Progestin Receptor): 55 nM
- % control (magnitude of maximal deviation from control) [2]: 94%
